Experimental data from patent publication US5783574A, “Imidazolylakyl derivatives of imidazo [5,1-c][1,4]benzoxazin-1-one process for their preparation” (Pharmacia & Upjohn S.p.A., priority 1994, dated 1998).
Where a name gives a salt, the structure may show the parent alone.

Key:
[1] = molecular target: T1, 5-HT3 binding sites in rat brain cortical membranes (Rattus norvegicus, UniProt P35563); experiment: inhibition of 3H-BRL 43694 (Granisetron) binding in rat entorhinal cortex membranes; conditions: read-out: 5-HT3 binding affinity, 3H-BRL 43694 IC50
T1 construct: from tissue; host or cells: rat entorhinal cortex membranes
T1 sequence (P35563 24-483): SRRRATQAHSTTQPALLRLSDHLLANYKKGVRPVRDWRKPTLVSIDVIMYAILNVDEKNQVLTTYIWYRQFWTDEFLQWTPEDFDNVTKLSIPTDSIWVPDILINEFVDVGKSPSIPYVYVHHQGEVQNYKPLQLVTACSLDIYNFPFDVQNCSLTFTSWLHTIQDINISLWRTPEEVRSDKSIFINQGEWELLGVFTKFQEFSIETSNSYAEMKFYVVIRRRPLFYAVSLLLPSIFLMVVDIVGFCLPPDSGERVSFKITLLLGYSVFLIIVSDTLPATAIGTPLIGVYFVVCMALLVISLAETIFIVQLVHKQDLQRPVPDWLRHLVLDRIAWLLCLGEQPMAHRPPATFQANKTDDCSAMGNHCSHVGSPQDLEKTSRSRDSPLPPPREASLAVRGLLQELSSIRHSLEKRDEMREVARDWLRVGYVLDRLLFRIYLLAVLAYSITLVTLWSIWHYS
Text: [^3 H]-BRL 43694 (Granisetron) is a specific ligand for 5-HT3 binding sites in rat brain cortical membranes: Biochem. Pharmac. 38, 1693-1695, 1989.
The following Table II summarizes the activity data obtained in this in-vitro test for two representative compounds of the invention in comparison with compound A, i.e. a close chemically related compound falling within U.S. Pat. No. 4,134,974.
5-HT3 binding affinity for rat entorhinal

[2] = molecular target: T2, 5HT3 receptor (Rattus norvegicus, UniProt P35563); experiment: inhibition of the von Bezold-Jarisch reflex (chemoreflex) evoked by 5-HT in the anesthetised rat; format: in vivo; conditions: anesthetized rat, 5-HT 30 μg/kg i.v.; for % inhibition of the von Bezold-Jarisch reflex elicited by 5-HT: compound 100 μg/kg i.v., N=6, mean; for ED50: iv, limits printed on the line below
T2 construct: evoked by 5-HT in the anesthetised rat; from tissue; host or cells: whole anaesthetised rat (by own knowledge: cardiopulmonary vagal afferents)
T2 sequence (P35563 24-483): T1 sequence (P35563 24-483)
Experimental: Pharmacol. 326, 36-44 (1984).
Inhibition of the von Bezold-Jarisch reflex
elicited by 5-HT (30 μg/kg i.v.) by FCE
compounds in the anesthetized rat. Values are
mean ± in S.E.M. from N animals

| SMILES | IC50 [1] [nM] | % inhibition of the von Bezold-Jarisch reflex elicited by 5-HT [2] [%] | ED50 [2] [mg/kg] |
| --- | --- | --- | --- |
| Cc1nccn1CCN1CC2COc3ccccc3N2C1=O (stereo not shown) [Compound A, 2,3,3a,4tetrahydro-2-[2(2-methyl-imidazol-1-yl)ethyl1H-imidazo[5,1c][1,4]enzoxazin1-one hydrochloride, reference compound] | 1210 |  |  |
| Cc1[nH]cnc1CN1CC2COc3ccccc3N2C1=O (stereo not shown) [FCE 28158, 2,3,3a,4-tetrahydro-2-(5-methyl-1H-imidazol-4-yl)methyl-1H-imidazo[5,1-c][1,4]benzoxazin-1-one] | 76 | 82 | 0.0236 |
| Cc1[nH]cnc1CN1CC2COc3ccc(Cl)cc3N2C1=O (stereo not shown) [FCE 28609, 2,3,3a,4-tetrahydro-8-chloro-2-(5-methyl-1H-imidazol-4-yl)methyl-1H-imidazo[5,1-c][1,4]benzoxazin-1-one] | 6 | 97.5 | 0.00818 |
